From patent US7820817B2, “Modulators of muscarinic receptors” (Vertex Pharmaceuticals Incorporated, priority 2004, dated 2010)

What follows are compounds tested on at least one muscarinic receptor, M1, M2, M3, M4 (assay: Muscarinic modulation activity (Table 3)). Settings: concentration at which modulation of at least one muscarinic receptor, M1, M2, M3, M4, was exhibited; CHO cells.
Assay type: cell-based
Parameters: key: +++: exhibited muscarinic modulation activity for at least one muscarinic receptor, M1, M2, M3, M4, at a concentration of less than 5 μM; ++: exhibited muscarinic modulation activity for at least one muscarinic receptor, M1, M2, M3, M4, at a concentration of between 30 μM and 5 μM; +: exhibited muscarinic modulation activity for at least one muscarinic receptor, M1, M2, M3, M4, at a concentration of greater than 30 μM; −: were not assayed or did not exhibit muscarinic modulation activity for at least one muscarinic receptor, M1, M2, M3, M4, at the concentration at which the assay was performed
Method in brief: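 CHO cells expressing M1–M5 loaded with Fluo-3 AM or Calcium 3 dye plus 1 mM probenecid; FLIPR fluorescence read for 60 sec after compound addition (agonist mode) or after 15 min pre-incubation then carbachol at EC80 (inhibition mode); 0.5% DMSO final.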

SMILES | ACTIVITY (muscarinic modulation activity)
O=[N+]([O-])c1cccnc1N1CCN(CC2CC3C=CC2C3)CC1 (stereo not shown) [Compound 1, 1-(5-bicyclo[2.2.1]hept-2-enylmethyl)-4-(3-nitro-2-pyridyl)-piperazine] | ++ (exhibited muscarinic modulation activity for at least one muscarinic receptor, M1, M2, M3, M4, at a concentration of between 30 μM and 5 μM)
CCc1cnc(N2CCN(CC3CC4CCC3C4)CC2)nc1 (stereo not shown) [Compound 22, 5-ethyl-2-[4-(norbornan-2-ylmethyl)piperazin-1-yl]-pyrimidine] | −
N#Cc1cc(-c2ccccc2)cnc1N1CCN(CC2CC3CCC2C3)CC1 (stereo not shown) [Compound 46, 2-[4-(norbornan-2-ylmethyl)piperazin-1-yl]-5-phenyl-nicotinonitrile] | ++ (exhibited muscarinic modulation activity for at least one muscarinic receptor, M1, M2, M3, M4, at a concentration of between 30 μM and 5 μM)
CCOC(=O)N1C2CCC1CC(N1CCC(c3nc(OC)cc(OC)n3)CC1)C2 (stereo not shown) [Compound 57, 3-[4-(4,6-dimethoxypyrimidin-2-yl)-1-piperidyl]-8-azabicyclo[3.2.1]octane-8-carboxylic acid ethyl ester] | +++ (exhibited muscarinic modulation activity for at least one muscarinic receptor, M1, M2, M3, M4, at a concentration of less than 5 μM)
NC(=O)c1cccnc1N1CCN(C2CC3CCC2C3)CC1 (stereo not shown) [Compound 10, 2-(4-norbornan-2-ylpiperazin-1-yl)nicotinamide] | −
N#Cc1nccnc1N1CCN(CC2CCC3CCC2C3)CC1 (stereo not shown) [Compound 23, 3-[4-(4-bicyclo[3.2.1]octylmethyl)piperazin-1-yl]pyrazine-2-carbonitrile] | −
C1=CC2CC1CC2CN1CCN(c2cnccn2)CC1 (stereo not shown) [Compound 39, 2-[4-(5-bicyclo[2.2.1]hept-2-enylmethyl)piperazin-1-yl]pyrazine] | + (exhibited muscarinic modulation activity for at least one muscarinic receptor, M1, M2, M3, M4, at a concentration of greater than 30 μM)
COc1cc(OC)nc(C2CCN(CC3CC4C=CC3C4)CC2)n1 (stereo not shown) [Compound 4, 2-[1-(5-bicyclo[2.2.1]hept-2-enylmethyl)-4-piperidyl]-4,6-dimethoxy-pyrimidine] | +++ (exhibited muscarinic modulation activity for at least one muscarinic receptor, M1, M2, M3, M4, at a concentration of less than 5 μM)
C1=CC2CC1CC2CN1CCN(c2ncccn2)CC1 (stereo not shown) [Compound 76, 2-[4-(5-bicyclo[2.2.1]hept-2-enylmethyl)piperazin-1-yl]pyrimidine] | +++ (exhibited muscarinic modulation activity for at least one muscarinic receptor, M1, M2, M3, M4, at a concentration of less than 5 μM)
Clc1cccc(N2CCN(CC3CC4C=CC3C4)CC2)n1 (stereo not shown) [Compound 21, 1-(5-bicyclo[2.2.1]hept-2-enylmethyl)-4-(6-chloro-2-pyridyl)-piperazine] | −
Cc1cc(C)nc(N2CCN(C3CC4CCC3C4)CC2)n1 (stereo not shown) [Compound 72, 4,6-dimethyl-2-(4-norbornan-2-ylpiperazin-1-yl)-pyrimidine] | −
Cc1cnc(C)c(N2CCN(CC3CC4C=CC3C4)CC2)n1 (stereo not shown) [Compound 16, 3-[4-(5-bicyclo[2.2.1]hept-2-enylmethyl)piperazin-1-yl]-2,5-dimethyl-pyrazine] | +++ (exhibited muscarinic modulation activity for at least one muscarinic receptor, M1, M2, M3, M4, at a concentration of less than 5 μM)
CCOC(=O)N1C2CCC1CC(N1CCN(c3nc(C)cc(C)c3C#N)CC1)C2 (stereo not shown) [Compound 78, 3-[4-(3-cyano-4,6-dimethyl-2-pyridyl)piperazin-1-yl]-8-azabicyclo[3.2.1]octane-8-carboxylic acid ethyl ester] | ++ (exhibited muscarinic modulation activity for at least one muscarinic receptor, M1, M2, M3, M4, at a concentration of between 30 μM and 5 μM)
Cc1nc(N2CCN(CC3CC4CCC3C4)CC2)c(C#N)cc1-c1ccccc1 (stereo not shown) [Compound 73, 6-methyl-2-[4-(norbornan-2-ylmethyl)piperazin-1-yl]-5-phenyl-nicotinonitrile] | −
c1ccc2c(c1)nnn2C1CCN(C2CC3CCC2C3)CC1 (stereo not shown) [Compound 50, 1-(1-norbornan-2-yl-4-piperidyl)-1H-benzotriazole] | ++ (exhibited muscarinic modulation activity for at least one muscarinic receptor, M1, M2, M3, M4, at a concentration of between 30 μM and 5 μM)
Clc1cccnc1N1CCN(CC2CC3C=CC2C3)CC1 (stereo not shown) [Compound 52, 1-(5-bicyclo[2.2.1]hept-2-enylmethyl)-4-(3-chloro-2-pyridyl)-piperazine] | ++ (exhibited muscarinic modulation activity for at least one muscarinic receptor, M1, M2, M3, M4, at a concentration of between 30 μM and 5 μM)
